Laboratory results taken from the NIST ThermoML archive (doi:10.1016/j.tca.2015.09.023).
± gives the expanded uncertainty stated by the source.

How the values were obtained:
[1] = Crystal; DTA
[2] = Molar enthalpy of transition or fusion; details: Crystal; DSC

Row | Normal melting temperature [1] | Molar enthalpy of transition or fusion [2] | SMILES
1 | 261.6 ± 0.4 °C | 34.1 ± 0.8 kJ/mol | CN1C(=O)N[C@@H]2NC(=O)N[C@@H]21 (racemic)
2 | 92.6 ± 0.4 °C | 20.1 ± 0.7 kJ/mol | CN1C(=O)N[C@H]2[C@@H]1N(C)C(=O)N2C (racemic)
3 | 277.1 ± 0.4 °C | 24.4 ± 0.7 kJ/mol | CN1C(=O)N[C@H]2[C@@H]1NC(=O)N2C (racemic)
